The text below walks through data of PubChem BioAssay AID248 (DTP/NCI, 2004).

The structures appear in SMILES notation. Values joined by “and” are separate entries in the source; they are usually repeats but may differ in a detail not shown here. Equal values may be shown once. Inconclusive results and toxic doses are left out.

The assay concerns L1210 leukemia ip in BDF1 mice, survival T/C. As to the kind of experiment: NCI In Vivo Anticancer Drug Screen. Data for tumor model L1210 Leukemia (intraperitoneal) in B6D2F1 (BDF1) mice. As to conditions: endpoint: mean survival time, higher = longer survival. In short, it runs like this: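 In this screen, tumor-bearing mice given compound are compared to those given vehicle, and their survival values are reported as a treated-to-control quotient.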

The mark [1] stands for this setting: dose: 100.0 mg/kg/injection, schedule: Q01DX009 (ip), vehicle: saline with Tween-80.
[2] abbreviates: dose: 100.0 mg/kg/injection, schedule: Q04DX003 (ip), vehicle: saline with Tween-80.
The mark [3] stands for this setting: dose: 150.0 mg/kg/injection, schedule: Q01DX009 (ip), vehicle: saline.
[4] abbreviates: dose: 200.0 mg/kg/injection, schedule: Q01DX009 (ip), vehicle: saline with Tween-80.
The mark [5] stands for this setting: dose: 200.0 mg/kg/injection, schedule: Q04DX003 (ip), vehicle: saline with Tween-80.
Where [6] appears, read: dose: 300.0 mg/kg/injection, schedule: Q01DX009 (ip), vehicle: saline.
The mark [7] stands for this setting: dose: 400.0 mg/kg/injection, schedule: Q04DX003 (ip), vehicle: saline with Tween-80.
Where [8] appears, read: dose: 100.0 mg/kg/injection, schedule: Q01DX001 (ip), vehicle: saline.
Where [9] appears, read: dose: 200.0 mg/kg/injection, schedule: Q01DX001 (ip), vehicle: saline.
Setting [10] is: dose: 400.0 mg/kg/injection, schedule: Q01DX001 (ip), vehicle: saline.
Where [11] appears, read: dose: 100.0 mg/kg/injection, schedule: Q04DX003 (ip), vehicle: Klucel (hydroxypropylcellulose) (HPC).
Setting [12] is: dose: 200.0 mg/kg/injection, schedule: Q04DX003 (ip), vehicle: Klucel (hydroxypropylcellulose) (HPC).
Where [13] appears, read: dose: 400.0 mg/kg/injection, schedule: Q04DX003 (ip), vehicle: Klucel (hydroxypropylcellulose) (HPC).
Setting [14] is: dose: 100.0 mg/kg/injection, schedule: Q04DX002 (ip), vehicle: Klucel (hydroxypropylcellulose) (HPC).
The mark [15] stands for this setting: dose: 200.0 mg/kg/injection, schedule: Q04DX002 (ip), vehicle: Klucel (hydroxypropylcellulose) (HPC).
[16] abbreviates: dose: 400.0 mg/kg/injection, schedule: Q04DX002 (ip), vehicle: Klucel (hydroxypropylcellulose) (HPC).

Take `N#[N+]c1c(C(=O)O)[nH]c(=O)[nH]c1=O`: the T/C (dose: 6.25 mg/kg/injection, schedule: Q01DX009 (ip), vehicle: saline) is 99 % of control; the T/C (dose: 10.0 mg/kg/injection, schedule: Q01DX001 (ip), vehicle: carboxymethylcellulose (CMC)) was 92 % of control; the T/C (dose: 12.5 mg/kg/injection, schedule: Q01DX009 (ip), vehicle: saline with Tween-80) is 98 % of control; the T/C (dose: 12.5 mg/kg/injection, schedule: Q01DX009 (ip), vehicle: saline) is 96 % of control; the T/C (dose: 12.5 mg/kg/injection, schedule: Q01DX Z (ip), vehicle: methylcellulose (MC)) is 94 % of control; the T/C (dose: 20.0 mg/kg/injection, schedule: Q01DX001 (ip), vehicle: carboxymethylcellulose (CMC)) is 95 % of control. Moreover, the T/C reads like this: (dose: 20.0 mg/kg/injection, schedule: Q01DX009 (ip), vehicle: carboxymethylcellulose (CMC)) 96 % of control; (dose: 25.0 mg/kg/injection, schedule: Q01DX009 (ip), vehicle: saline with Tween-80) 102 % of control; (dose: 25.0 mg/kg/injection, schedule: Q01DX009 (ip), vehicle: saline) 98 % of control; (dose: 25.0 mg/kg/injection, schedule: Q01DX Z (ip), vehicle: methylcellulose (MC)) 101 % of control; (dose: 40.0 mg/kg/injection, schedule: Q01DX001 (ip), vehicle: carboxymethylcellulose (CMC)) 104 % of control; (dose: 40.0 mg/kg/injection, schedule: Q01DX009 (ip), vehicle: carboxymethylcellulose (CMC)) 108 % of control. Moreover, the T/C was 95 % of control and 92 % of control (dose: 50.0 mg/kg/injection, schedule: Q01DX009 (ip), vehicle: saline with Tween-80); 99 % of control (dose: 50.0 mg/kg/injection, schedule: Q01DX009 (ip), vehicle: saline); 155 % of control (dose: 50.0 mg/kg/injection, schedule: Q01DX Z (ip), vehicle: carboxymethylcellulose (CMC)); 121 % of control (dose: 50.0 mg/kg/injection, schedule: Q01DX Z (ip), vehicle: methylcellulose (MC)); 101 % of control (dose: 80.0 mg/kg/injection, schedule: Q01DX001 (ip), vehicle: carboxymethylcellulose (CMC)); 96 % of control (dose: 80.0 mg/kg/injection, schedule: Q01DX009 (ip), vehicle: carboxymethylcellulose (CMC)). Moreover, the T/C runs as follows: under setting [1], 107 % of control and 92 % of control; (dose: 100.0 mg/kg/injection, schedule: Q01DX009 (ip), vehicle: saline) 103 % of control; (dose: 100.0 mg/kg/injection, schedule: Q01DX Z (ip), vehicle: methylcellulose (MC)) 100 % of control; under setting [2], 95 % of control; under setting [3], 90 % of control; under setting [4], 97 % of control. The T/C was 97 % of control under setting [5]; 101 % of control under setting [6]; 103 % of control under setting [7]; 97 % of control (dose: 800.0 mg/kg/injection, schedule: Q04DX003 (ip), vehicle: saline with Tween-80).

Consider `CC1=CC(=O)C2=C(C)C[C@H](O)[C@@H]3[C@H](OC(=O)[C@H]3C)[C@@H]12`, for which the T/C runs as follows: (dose: 100.0 mg/kg/injection, schedule: Q04DX002 (ip), vehicle: saline) 100 % of control; (dose: 200.0 mg/kg/injection, schedule: Q04DX002 (ip), vehicle: saline) 89 % of control; (dose: 400.0 mg/kg/injection, schedule: Q04DX002 (ip), vehicle: saline) 95 % of control.

For the compound `COc1ccc(/C=C2\N=C(c3ccco3)OC2=O)cc1Br`, the T/C (dose: 100.0 mg/kg/injection, schedule: Q01DX009 (ip), vehicle: Klucel (hydroxypropylcellulose) (HPC)) was 94 % of control; the T/C (dose: 200.0 mg/kg/injection, schedule: Q01DX009 (ip), vehicle: Klucel (hydroxypropylcellulose) (HPC)) is 94 % of control; the T/C (dose: 400.0 mg/kg/injection, schedule: Q01DX009 (ip), vehicle: Klucel (hydroxypropylcellulose) (HPC)) is 91 % of control.

Regarding `O=C(Nc1ccccc1)NS(=O)(=O)CS(=O)(=O)NC(=O)Nc1ccccc1`, the T/C under setting [8] was 104 % of control, the T/C under setting [9] was 102 % of control and the T/C under setting [10] is 109 % of control.

`O=C(CCCC(=O)NNC(=O)Nc1cccc([N+](=O)[O-])c1)NNC(=O)Nc1cccc([N+](=O)[O-])c1`: the T/C (dose: 50.0 mg/kg/injection, schedule: Q01DX001 (ip), vehicle: saline) is 102 % of control; the T/C under setting [8] was 102 % of control; the T/C under setting [9] is 96 % of control; the T/C under setting [10] is 102 % of control.

Take `S=C(Nc1ccccc1)Nc1nccs1`: the T/C is 104 % of control under setting [8]; 105 % of control under setting [11]; 101 % of control under setting [9]; 101 % of control under setting [12]; 101 % of control under setting [10]; 103 % of control under setting [13].

Turning to `CCOC(=O)OC1C(OC)OC2COC(c3ccccc3)OC2C1O` (stereo not given), the T/C reads like this: under setting [14], 91 % of control; under setting [15], 91 % of control; under setting [16], 107 % of control.

On to `CCOC(C)C1C2CCCCC21` (stereo not given), for which the T/C under setting [1] is 101 % of control and the T/C under setting [4] was 92 % of control.

Turning to `CCOC(=O)c1cc(C(=O)OCC)c(C)nc1C`, the T/C is 96 % of control (dose: 75.0 mg/kg/injection, schedule: Q01DX001 (ip), vehicle: saline); 94 % of control (dose: 75.0 mg/kg/injection, schedule: Q01DX009 (ip), vehicle: saline); 96 % of control under setting [11]; 98 % of control (dose: 150.0 mg/kg/injection, schedule: Q01DX001 (ip), vehicle: saline); 94 % of control under setting [3]; 93 % of control under setting [12]. In addition, the T/C (dose: 300.0 mg/kg/injection, schedule: Q01DX001 (ip), vehicle: saline) was 100 % of control; the T/C under setting [6] was 91 % of control; the T/C under setting [13] is 93 % of control.

Take `O=CC(NC(=O)C(O)C(O)C(O)C(O)CO)C(O)C(O)C(O)CO` (stereo not given): the T/C reads like this: (dose: 100.0 mg/kg/injection, schedule: Q04DX003 (ip), vehicle: saline) 102 % of control; (dose: 200.0 mg/kg/injection, schedule: Q04DX003 (ip), vehicle: saline) 97 % of control; (dose: 400.0 mg/kg/injection, schedule: Q04DX003 (ip), vehicle: saline) 91 % of control.

With `CCOC(=O)CNc1cccc(F)c1`, the T/C was 101 % of control under setting [14], 108 % of control under setting [15] and 105 % of control under setting [16].

As for `CCOC(=O)C1(C)CCCCC1=O` (stereo not given), the T/C by setting is: (dose: 100.0 mg/kg/injection, schedule: Q01DX009 (ip), vehicle: saline sonified) 110 % of control; (dose: 200.0 mg/kg/injection, schedule: Q01DX009 (ip), vehicle: saline sonified) 96 % of control; (dose: 400.0 mg/kg/injection, schedule: Q01DX009 (ip), vehicle: saline sonified) 105 % of control.

Take `CC12CCN=C1c1ccc3cc(O)ccc3c1CC2` (stereo not given): the T/C by setting is: (dose: 100.0 mg/kg/injection, schedule: Q04DX003 (sc), vehicle: steriod suspending solution) 93 % of control; (dose: 200.0 mg/kg/injection, schedule: Q04DX003 (sc), vehicle: steriod suspending solution) 107 % of control; (dose: 400.0 mg/kg/injection, schedule: Q04DX003 (sc), vehicle: steriod suspending solution) 96 % of control.

On to `C=Cc1c(C)c(O)cc2c1CC[C@@H]1C(C)(C)[C@H](O)[C@H](O)C[C@@]21C`, for which the T/C is, setting by setting: under setting [2], 103 % of control; under setting [5], 100 % of control; under setting [7], 98 % of control.

As for `COCCCNP1(=O)OCC(C)([N+](=O)[O-])CO1` (stereo not given), the T/C reads like this: (dose: 50.0 mg/kg/injection, schedule: Q01DX001 (ip), vehicle: carboxymethylcellulose (CMC)) 100 % of control; (dose: 100.0 mg/kg/injection, schedule: Q01DX001 (ip), vehicle: carboxymethylcellulose (CMC)) 94 % of control; (dose: 200.0 mg/kg/injection, schedule: Q01DX001 (ip), vehicle: carboxymethylcellulose (CMC)) 94 % of control; (dose: 400.0 mg/kg/injection, schedule: Q01DX001 (ip), vehicle: carboxymethylcellulose (CMC)) 92 % of control.
